Test results reported in patent publication US20050222027A1, “Modulation of complement to treat pain” (Euro-Celtique S.A., priority 2003, published 2005).
“Also recorded” adds a separate entry of the source.

Columns and labels:
C3 = test: Hemolysis assay measuring C3 activity in serum of rats given CVF; assay type: in vivo, rat
Text: A variety of methods well-known in the art can be used to determine at least one activity of a complement component. As described in the Examples Section below, the hemolysis assay can be used to measure the activity of C3 in the serum from blood samples. In the hemolysis assay, erythrocytes are sensitized by coating these erythrocytes with antibodies against red blood cells. Next, the sensitized erythrocytes, C3-depleted serum, and a blood sample to be tested for C3 activity are combined and incubated. During incubation, the complement pathway proceeds on the surface of the erythorcytes using complement components from the C3-depleted serum and C3 from the blood sample. This pathway can result in the formation of a sufficient number of MAC pores to induce erythorcyte lysis and hemoglobin release. The optical density at 540 run is then measured to determine the quantity of free hemoglobin in solution as a result of erythrocyte lysis. Since erythrocyte lysis is a result of complement activation and the presence of C3, the optical density at 540 nm is a measure of the activity of C3 in the blood sample.
To determine the effect of CVF on complement C3 activity, naïve animals were injected with CVF on days 0, 3, and 6. C3 activity was measured using the hemolysis assay before and after CVF injections as described below.
The timeline for the general method of surgery followed by CVF injection is outlined in FIG. 8. Spinal nerve ligation (SNL) was performed on Sprague-Dawley rats as described above in Example 1. On day 0, SNL surgery was performed on 20 rats and sham surgery was performed on 20 rats. At days 23 and 26 post surgery, 10 SNL and 10 sham animals (designated herein as SNL-CVF and Sham-CVF, respectively) were injected (ip) with CVF (350 units/kg). In addition, as controls, 10 SNL and 10 sham animals (designated herein as SNL-saline and Sham-saline, respectively) were given saline injections (ip). Five animals from each group were terminated on day 29. The remaining five animals were terminated on day 39. Pain behavior was measured using the paw pressure test as described in Example 1 above. C3 activity was measured by the hemolysis assay before and after animals received CVF as described below.
The sensitization of sheep erythrocytes and the hemolysis assay to measure C3 activity were performed according to the Quidel Technical Bulletin entitled Measurement of C3 function in non-primate sera by hemolytic assay (Quidel Corporation, Santa Clara, Calif.). References within this protocol are the following: DeSautel and Brode, Laryngoscope 1999, 109:1674-8; Kirshfink, The Complement System 1998, Rother and Till eds, Springer Verlag Berlin Heidelberg, 522-547; Mollnes, Complement and Complement Receptors 1997, Weir ed, 78.1-78.6; Porcel et al., J. Immunol Method. […]

[1] = tested on: spinal nerve ligation (SNL) model of neuropathic pain; test: Paw pressure test (paw withdrawal threshold) in the SNL model of neuropathic pain; assay type: in vivo, rat
Text: Rats having the L5-L6 spinal nerves ligated (SNL) according to the method of Kim and Chung, Pain 1992; 50:355-63 were used in this experiment. Briefly, nerve injury was induced by tight ligation of the left L5 and L6 spinal nerves, producing symptoms of neuropathic pain as described below. The advantage of this model is that it allows the investigation of dorsal root ganglia that are injured (L5 and L6) versus dorsal root ganglia that are not injured (L4). Thus, it is possible to see changes in gene expression specifically in response to nerve injury.
Surgery was performed under isoflurane/O2 inhalation anesthesia. Following induction of anesthesia, a 3 cm incision was made just lateral to the spinal vertebrae. The left paraspinal muscles were separated from the spinous process at the L4-S2 levels. The L6 transverse process was carefully removed with a pair of small rongeurs to visually identify the L4-L6 spinal nerves. The left L5 and L6 spinal nerves were isolated and tightly ligated with 7-0 silk suture. A complete hemostasis was confirmed, and the wound was sutured using […] sutures, such as 4-0 Vicryl.
Mechanical sensitivity was assessed using the paw pressure test. This test measures mechanical hyperalgesia. Hind paw withdrawal thresholds (“PWT”) (measured in grams) in response to a noxious mechanical stimulus were determined using an analgesymeter (Model 7200, commercially available from Ugo Basile of Italy), as described in Stein, Biochemistry & Behavior 1988; 31: 451-455. […] PWT was determined once for each rat at each time point, and only the injured ipsilateral paw (i.e., the hind paw on the same side of the animal as the ligation in SNL animals, or the side of the animal where the nerve was exposed but not injured in sham-operated animals) was used in the test. […]
The timeline for the general method of surgery followed by CVF injection is outlined in FIG. 8. […] Pain behavior was measured using the paw pressure test as described in Example 1 above. C3 activity was measured by the hemolysis assay before and after animals received CVF as described below.

With CVF the “C3 complement activity levels on day 39” value (C3; CVF 350 units/kg ip on days 23 and 26 post surgery, day 39, FIG. 10C) was “returned to pre-surgery and day 23 levels”, the “C3 activity levels relative to pre-surgery and day 23” value (C3; CVF treated animals (350 units/kg ip on days 23 and 26 post surgery), days 28 and 29, FIG. 10B) was “below 20%” and the “C3 activity (hemolysis assay) after CVF treatment” value (C3; SNL and sham surgery rats injected with CVF or saline, FIGS. 10B and 10C) was “C3 activity decreases after CVF treatment in both SNL and sham surgery animals”. For the same substance, the “C3 activity (hemolysis assay, optical density at 540 nm) after CVF treatment” value (C3; naïve rats, CVF given on days 0, 3 and 6, measured at 0, 3, 6, 7, 8 and 12 days, FIG. 10A) was “return to pre-dosing levels by day 8; also recorded: C3 activity decreases”, the “Pain tolerance (withdrawal threshold to a mechanical stimulus) versus SNL animals injected with saline” value ([1]; SNL rats treated with CVF compared to SNL saline control) was “chronic pain is alleviated; also recorded: higher pain tolerance” and the “Pain behavior (paw withdrawal threshold) of SNL-CVF animals by day 29” value ([1]; SNL rats, CVF 350 units/kg ip on days 23 and 26 post surgery, day 29, FIG. 9) was “not significantly different than Sham-saline or Sham-CVF animals”. The “Pain behavior (paw withdrawal threshold) of SNL-CVF animals by day 31” value ([1]; SNL rats, CVF 350 units/kg ip on days 23 and 26 post surgery, day 31, FIG. 9) was “returned to day 23 levels”.
